Laboratory results published in PubChem BioAssay (NCI).
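Compound exposure: 48 hours, 5 concentrations, 96-well plates. The concentration for full growth arrest is given as TGI.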

Legend:
Experiment in all cases: DTP human tumour cell line panel, 48 h
DLD-1 colon = system: DLD-1 colon
DMS 114 small cell lung = system: DMS 114 small cell lung
M19-MEL melanoma = system: M19-MEL melanoma
LXFL 529 NSCLC = system: LXFL 529 NSCLC
XF 498 CNS = system: XF 498 CNS

| Compound | TGI (DLD-1 colon) [µM] | TGI (DMS 114 small cell lung) [µM] | TGI (M19-MEL melanoma) [µM] | TGI (LXFL 529 NSCLC) [µM] | TGI (XF 498 CNS) [µM] |
| --- | --- | --- | --- | --- | --- |
| COc1cc2c(cc1O)C1C(O)C(O)C=C3CCN(C2)C31 (centres undefined) | 14.2 | 4.33 | 8.84 | 34.9 | 4.36 |
| COc1cccc2c1C(=O)c1c(O)c3c(c(O)c1C2=O)C[C@@](O)(C(=O)CO)C[C@@H]3OC1CC(N)C(OC)C(C)O1 (some centres undefined) | 3.37 |  | 0.237 | 0.432 |  |
| Cc1c(CNc2ccc(C(=O)NC(CC(=O)O)C(=O)O)cc2)ccc2nc(N)nc(N)c12 (centres undefined) |  | > 66.7 |  |  |  |
